The values that follow come from paper PMC11763059, “GENI as an AMPK Activator Binds α and γ Subunits and Improves the Memory Dysfunction of Alzheimer’s Disease Mouse Models via Autophagy and Neuroprotection” (Antioxidants, 2025).

The conditions of data set [1]: mouse, in vivo.
Excerpt: Each group comprised 10 mice. […] Dosing lasted for 10 weeks. […] The mice were sacrificed after 10 weeks of administration.
At the end of the animal experiment, the epididymis fat, heart, liver, spleen, and kidney of the mice were removed for weighing analysis.
Data set [2] has as its target T1, AMPK-s5 (γ subunit- D156A) (Rattus norvegicus, UniProt P54645+P80385, D156A).
T1 construct: His (N); made in house
Nature of the data set: SPR analysis, AMPK mutant s5. The class given is binding. As to the method:
Mammalian AMPK subunits (His-α1, β1, and γ1) were cloned into a pET-3d vector, and protein expression and purification were similar to the literature.
SPR analysis was performed with a Biacore T200 instrument (GE Healthcare). Firstly, the purred His-tagged AMPK containing α1β1γ1 protein was captured onto an activated carboxymethylated 5 (CM5) chip using amine coupling to levels ranging from 4000 RU to 6000 RU. Secondly, GENI was dissolved in PBS-P buffer solution (0.05% (v/v) Tween 20 and PBS), and the concentration of GENI was 64 μM. Thirdly, the solution of GENI was diluted to 32 μM, 16 μM, 8 μM, 4 μM, 2 μM, 1 μM and 0.5 μM with PBS-P buffer solution. The sample was filtered by pumping through a […] membrane. A gradient concentration of GENI was injected at a flow rate of 30 μL/min in a running buffer (0.05% (v/v) Tween 20 and PBS). The data were analyzed with Biacore evaluation software (T200 version 2.0) and fitted to the 1:1 Langmuir binding model, and the kinetic parameters were derived.
The non-covalent interaction between drugs and proteins is an important way to exert drug efficacy, and its mode of action and binding affinity usually determine the utilization and biological activity of drugs. AMPK is a heterotrimer complex consisting of an α subunit containing the kinase domain and two regulatory subunits (β- and γ-). […]

Another data set concerns PI3K. The experiment in a line: Drug affinity responsive target stability (DARTS), PI3K. Format: binding. The settings on record: 0.1–100 μM GENI, protein: pronase 50:1. As to the method:
Cells were lysed by RIPA lysis buffer, and the protein concentration was measured. The lysate was divided into six groups. Before incubation with protease (protein: pronase = 50:1 w/w for PI3K and AMPK detection, 5:1 for MAPK detection, 100:1 for p53 detection) for 25 min in 25 °C, 0.1–100 μM GENI was added to lysates and incubated for 2 h at room temperature. The samples were mixed with loading buffer and then separated on 8% SDS-PAGE for immunoblotting analysis.

The test system of the next data set is PC12 cells. Nature of the data set: Autophagy flow assay (CYTO-ID) in PC12 cells. Format: cell-based. As to the method:
The experiment was carried out according to the instructions of the CYTO-ID autophagy detection kit (Enzo Biochem, New York, NY, USA). In brief, we seeded 7.5 × 10^4 PC12 cells in each well of a 24-well plate using the cell slide method. The cells were incubated for 24 h at 37 °C in a 5% CO2 incubator. The experiment was divided into control (0.5% DMSO), positive control rapamycin (Rap 500 nM + chloroquine (CQ)), GENI treated-group (10 μM GENI + 10 μM CQ), 3-MA inhibitor group (5 mM 3-MA + 10 μM CQ) and GENI + 3MA group (5 mM 3-MA + 10 μM GENI + 10 μM CQ). The optimum concentration of 3MA inhibitor was referenced in the other report. At first, 0.5 mL of serum-free DMEM (plus 1% dual anti-penicillin–streptomycin) containing 3-MA (5 mM) was used to replace the medium in two groups as well as 0.5 mL of serum-free DMEM was added in the other groups, respectively. After treating for 6 h, 0.5 mL of DMEM containing DMSO (0.5%), Rap (500 nM) + CQ (10 μM), GENI (10 μM) + CQ (10 μM), CQ (10 μM), and GENI (10 μM) + CQ (10 μM) was added into the corresponding group, respectively. After 18 h, we removed the medium and washed cells twice with 1× assay buffer containing 5% FBS. We then added CYTO-ID Green detection reagent and Hocchst 33342 nuclear stain to the cells, which were incubated at 37 °C for 45 min. After three washes with 1× assay buffer, we fixed cells with 4% paraformaldehyde for 20 min. After three washes with 1× assay buffer, we observed the cells with an upright two-photon confocal microscope (Olympus FV1000BX-51, Tokyo, Japan).

T1 sequence (P54645 13-559 limits assumed): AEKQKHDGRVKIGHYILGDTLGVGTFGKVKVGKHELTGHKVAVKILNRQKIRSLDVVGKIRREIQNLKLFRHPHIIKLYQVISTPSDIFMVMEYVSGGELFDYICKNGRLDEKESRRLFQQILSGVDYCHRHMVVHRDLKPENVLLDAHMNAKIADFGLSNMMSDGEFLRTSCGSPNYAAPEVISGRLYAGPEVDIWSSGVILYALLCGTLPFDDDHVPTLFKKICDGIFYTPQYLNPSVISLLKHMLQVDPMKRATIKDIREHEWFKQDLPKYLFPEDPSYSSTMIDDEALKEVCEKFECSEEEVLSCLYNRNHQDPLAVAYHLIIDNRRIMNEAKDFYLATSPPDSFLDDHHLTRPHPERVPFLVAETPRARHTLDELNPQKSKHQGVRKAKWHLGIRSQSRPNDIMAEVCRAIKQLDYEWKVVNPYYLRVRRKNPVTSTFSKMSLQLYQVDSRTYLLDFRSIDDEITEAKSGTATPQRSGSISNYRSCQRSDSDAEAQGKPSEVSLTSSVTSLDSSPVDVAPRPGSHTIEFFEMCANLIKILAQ
T1 sequence (P80386 whole entry partner): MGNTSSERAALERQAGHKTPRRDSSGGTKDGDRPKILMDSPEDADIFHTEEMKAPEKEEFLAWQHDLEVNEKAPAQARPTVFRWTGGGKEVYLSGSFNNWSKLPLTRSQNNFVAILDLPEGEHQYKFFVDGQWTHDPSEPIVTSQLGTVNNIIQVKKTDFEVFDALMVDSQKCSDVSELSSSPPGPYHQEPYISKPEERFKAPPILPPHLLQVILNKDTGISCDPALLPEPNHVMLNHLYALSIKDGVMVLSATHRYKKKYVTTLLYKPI
T1 sequence (P80385 whole entry D156A): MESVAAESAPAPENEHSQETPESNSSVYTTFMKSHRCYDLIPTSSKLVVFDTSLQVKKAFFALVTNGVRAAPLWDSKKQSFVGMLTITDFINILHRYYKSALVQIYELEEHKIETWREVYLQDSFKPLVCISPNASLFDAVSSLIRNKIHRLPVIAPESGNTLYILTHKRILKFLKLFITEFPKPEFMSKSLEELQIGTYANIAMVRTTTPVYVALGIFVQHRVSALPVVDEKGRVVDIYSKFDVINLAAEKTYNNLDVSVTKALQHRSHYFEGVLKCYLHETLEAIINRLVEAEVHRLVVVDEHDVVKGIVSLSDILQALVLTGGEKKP

In the case of `CC(C)CCOC(=O)C1=CO[C@@H](O[C@@H]2O[C@H](CO)[C@@H](O)[C@H](O)[C@H]2O)C2C(CO)=CCC12` (stereo partly drawn) [GENI, Geniposidic 4-isoamyl ester], the “myocardial hypertrophy and toxic side effects” value in data set [1] is “did not find”. In data set [2] (SPR, association rate, read-out: Ka), the kon came to 2140 M⁻¹ s⁻¹. The “dose-dependent relationship in SPR” value in data set [2] (point mutation of D156) is “dose-dependent relationship was lost”. For the same molecule, in the data set on PI3K, the “stability of PI3K against pronase (DARTS)” value is reported as “no obvious effect”. Also, the “fluorescence intensity of autophagosomes” value in the data set with PC12 cells (10 μM GENI + 10 μM CQ, compared with the control group) was “significantly increased”. Further, in the data set on PC12 cells (GENI at 10 μM), the “autophagy effect relative to positive control Rap at 500 nM” value was “comparable”.
